A melting point compilation (Tetko et al.; mined from patent text by program, amines drawn as free bases though some values may be those of a salt)

Row | Compound | melting point
1 | CC(C)(C)OC(=O)N1CCN(c2cccc3ccoc23)CC1 | 98 to 100 °C
2 | COc1ccc(COc2cccc3c2CN(C2CCC(=O)NC2=O)C3=O)cc1OC (centres undefined) | 205 to 207 °C
3 | CNC(=O)C1=CC(CF)(CF)Oc2cc(Cl)c(Cl)cc21 | 141 to 142 °C
4 | O=C1N(Cc2ccccn2)c2cccnc2C12COc1cc3c(cc12)OCCO3 (centres undefined) | 146 to 147 °C
5 | CCOC(=O)[C@H](Cc1ccc(-c2c(OC)cc(CCO)cc2OC)cc1)NC(=O)c1c(F)cccc1F | 115 to 117 °C
6 | OCC(CO)Oc1ccc(I)cc1 | 90 °C
7 | COC(=O)C1C=C2c3cccc4[nH]c(C)c(c34)CC2N(C)C1 (centres undefined) | 154 °C
8 | O=C(O)CC(NC(=O)c1ccccc1)c1ccccc1F (centres undefined) | 202 to 205 °C
9 | COc1ccc2c(c1)C(NC(=O)C(F)(F)F)CC2 (centres undefined) | 128 to 136 °C
10 | CSc1nnc(-c2cc(C(C)(C)C)c(O)c(C(C)(C)C)c2)s1 | 122 °C
11 | Cc1c(NC(=O)c2ccc(OCC3CCOC3)cc2)ccc2cc(CNCC(C)(C)C)cnc12 (centres undefined) | 129 °C
12 | CS(=O)(=O)c1cccc(-n2c(=O)n(Cc3ccncc3)c(=O)c3cccnc32)c1 | 254 to 256 °C
13 | Cc1cc(Cl)nnc1-c1cccc(C#N)c1 | 153 to 155 °C
14 | COc1ccc(NC(=O)CN2CCC(Cc3ccccc3)CC2)cc1 | 81 to 83 °C
15 | CN(Cc1ccc(COc2cccc3c2CN(C2CCC(=O)NC2=O)C3=O)cc1)c1ccccc1 (centres undefined) | 201 to 203 °C
16 | CC(=O)c1nc(-c2ccc(Cl)nc2)[nH]c1C | 239 to 240 °C
17 | Cc1ccc(-c2nc(N)ncc2-c2ccc(=O)n(C)n2)cc1 | 230 °C
18 | O=C(O)C#Cc1ccccn1 | 130 °C
19 | COC(=O)ON1C(=O)c2ccccc2C1=O | 129 to 135 °C
20 | S=c1[nH]c(Nc2ccc(Cl)cc2)nc2ccccc12 | 264 to 268 °C
21 | COc1ccc2sc(S(N)(=O)=O)cc2c1 | 125 to 127 °C
22 | CC1CCC(Oc2cc(F)cc(C(=O)Nc3ccc(OCCN4CCOCC4)c4ccccc34)c2)C1 (centres undefined) | 65 to 66 °C
23 | CC1CN(Cc2ccccc2)c2c3c(nc4cccc(c24)O1)CCCC3 (centres undefined) | 152 to 153 °C
24 | Cn1c(CC(=O)O)cc2ccc3ccsc3c(=O)c21 | 185 to 188 °C
25 | CN1CCC(c2nn(C(=O)c3ccc(F)cc3)c3ccccc23)CC1 | 132 to 133 °C
26 | O=C(O)c1cc(-c2ccncc2)n[nH]c1=O | > 310 °C

Row | Compound | melting point
27 | Cn1cc(-c2cc(-c3cnc4c(c3)CC(=O)N4)ccn2)n(-c2ccc(C(C)(C)C#N)cc2)c1=O | 263 °C
28 | CNC(=O)C(Cc1ccc(OC)cc1)NC(=O)C(CC(C)C)C(CC(=O)OC(C)(C)C)SC(C)=O (centres undefined) | 147 to 151 °C
29 | CCC12CCC(=O)C=C1c1c(cc(OCC(=O)OCC(O)CO)c(Cl)c1Cl)C2 (centres undefined) | 135 to 138 °C
30 | COC(=O)C1=C(C)Nc2nccn2C1c1cccc(C2(C)OCCO2)c1 (centres undefined) | 199 to 201 °C
31 | COC(=O)Cc1cc(N)n(-c2ccccn2)n1 | 84 to 85 °C
32 | NC(=O)N(O)CC(=O)N(Cc1cccs1)c1ccc(Br)cc1 | 76 to 79.5 °C
33 | COc1ccc(/C=C/c2cc(/C=C/c3ccc4cc[nH]c4c3)n[nH]2)c(OCc2ccccn2)c1 | 107 to 115 °C
34 | CN(C)C(=O)Nc1c(Cl)cc2c(c1Cl)C(c1ccccc1F)=NCC(=O)N2C | 145 to 147 °C
35 | CCOP(=O)(C/C=C/CNc1c(N)c(=O)c1=O)OCC | 145 to 147 °C
36 | CC(=O)C(CCC#N)(CCC#N)C(C)=O | 185 to 186 °C
37 | COc1cc(OC)c(-c2nc(C)c(-c3cccnc3)[nH]2)cc1Br | 246 to 248 °C
38 | CC(=O)OCC1OC(n2cc(C)c(=O)[nH]c2=O)CC1F (centres undefined) | 97 to 98 °C
39 | O=[N+]([O-])c1ccc(Sc2ccc(O)c(Cl)c2Cl)cc1 | 204 °C
40 | Cc1cccc(C(=O)O)c1N(C)S(=O)(=O)c1ccc(OCCCNC(=O)c2cc3ccccc3o2)cc1 | 184 to 186 °C
41 | COc1ccc(S(=O)(=O)F)nn1 | 87 to 88 °C
42 | O=C(O)c1cc2c(c(C(=O)O)c1)NCCC2 | 298 to 299 °C
43 | Cc1coc(NC(=O)C2=C(O)c3c(c4ccccc4n3C)S(=O)(=O)N2C)n1 | 128 °C
44 | Cc1ccc(S(=O)(=O)OCC2Cc3cccc(-c4ccc(F)cc4)c3O2)cc1 (centres undefined) | 83 to 86 °C
45 | O=C(CN1CCNCC1)Nc1ccc2c(c1)C(=O)c1cc(NC(=O)CN3CCNCC3)ccc1C2=O | 173 °C
46 | CCc1nn2ccccc2c1[N+](=O)[O-] | 118 to 121 °C
47 | O=C(NCC1CCCCC1)NCC1CCCCC1 | 150 to 152 °C
48 | O=C1Nc2cc(Cl)c(Cl)cc2C1=O | 271 to 272 °C
49 | O=C(O)C=Cc1ccc(CCNC(=O)c2ccc(Cl)cc2)cc1 | 253 to 255 °C
50 | CCOC(=O)CN1CCN(CC(O)COc2cc3c(Nc4cccc(Br)c4)ncnc3cc2OC)CC1 (centres undefined) | 118 to 122 °C
51 | FC1(F)C(Oc2cc(Cl)c(Cl)cc2Cl)=C(Oc2cc(Cl)c(Cl)cc2Cl)C(F)(F)C1(F)F | 65 to 68 °C
52 | COc1ccc(C(Sc2ccccc2N)C(O)C(=O)O)cc1 (centres undefined) | 167 to 168 °C

Row | Compound | melting point
53 | CC(C)(C)OC(=O)NCC[C@H]1CC[C@H](CO)CC1 | 75 to 76 °C
54 | CCc1nc2c(N)nc3cc(CCCN)ccc3c2n1CC1CCOCC1 | 217 to 220 °C
55 | CCC(CC)(CC(=O)Nc1cccc(OCc2ccc3ccc(Cl)cc3n2)c1)C(=O)O | 87.5 to 88.5 °C
56 | Oc1nn(-c2ccccc2)cc1CCc1cscn1 | 152 to 153 °C
57 | O=[N+]([O-])c1ccc(Sc2ccccc2)c(CO)c1 | 104 to 107 °C
58 | COc1cccc2ccc(CC#N)cc12 | 47 to 48 °C
59 | C[C@H]1[C@@H](O)[C@H](Cc2ccccc2)C(=O)N1c1ccc(C#N)c(Cl)c1 | 99 to 101 °C
60 | O=C(O)Cn1cc(Cl)c(-c2cc(Cl)cc(Cl)c2)n1 | 182 °C
61 | O=c1cc(-c2ccccc2)oc2cc(OCC(O)CNCCCCc3cccnc3)ccc12 (centres undefined) | 116 to 119 °C
62 | Cc1cc(NS(=O)(=O)c2ccc(Br)cc2)cc(C)c1S(=O)(=O)C[N+](=O)[O-] | 164 to 166 °C
63 | CCCCCCOc1ccc(CCC(=O)O)cc1 | 70 to 72 °C
64 | O=C1C=c2c(c3c4ccccc4[nH]c3c3[nH]c4ccccc4c23)=N1 | > 320 °C
65 | CC1=NCCSC1=NOC(=O)N(C)C | 64 to 65 °C
66 | COC(=O)C1=C(CCc2ccccc2)NC(CC(=O)N2CCN(C)CC2)=C(C(=O)OC)C1c1ccccc1Cl (centres undefined) | 138 °C
67 | CS(=O)(=O)N1CCSc2ccccc2C1 | 98 to 100 °C
68 | Nc1cnc2c(c1)[nH]c(=O)n2-c1ccccc1F | 220 to 221 °C
69 | Cn1c(C(F)(F)F)cc(=O)n(-c2cc(Oc3ccc4cc(O)ccc4c3)c(C#N)cc2F)c1=O | 174 °C
70 | COC(=O)C1(S(C)(=O)=O)C(C)NC(C)=CC1c1ccccc1S(=O)(=O)NN(C)C (centres undefined) | 218 to 221 °C
71 | O=C(O)CC1=C(n2nc(-c3c(-c4ccccc4)nn4ccccc34)ccc2=O)CCCCC1 | 171 to 172 °C
72 | NC(=O)NCCCCC1CCSS1 (centres undefined) | 110 to 113 °C
73 | O=C(Nc1ccccc1)OC1CCN(C(=O)c2ccc(F)cc2)C1 (centres undefined) | 173 to 175 °C
74 | O=C1OC(=O)C(F)=C1F | 170 to 173 °C
75 | CC1(C)CC(=O)Nc2c(Br)cc3c(c21)OC(CN=[N+]=[N-])C3 (centres undefined) | 187 to 189 °C
76 | CC(C)(C)C(O)Cn1c(-c2ccccc2[N+](=O)[O-])nc2ccccc21 (centres undefined) | 192 to 193 °C
77 | O=C(c1ccccc1)c1ccccc1N1C=NC(CCl)(C(=O)O)N1 (centres undefined) | 90 to 93 °C
78 | O=C(NC1N=C(c2ccccc2F)c2ccccc2N(CC(=O)N2CC3CCC(CC3)C2)C1=O)c1cccc(O)c1 (racemic) | > 250 °C

Row | Compound | melting point
79 | O=C1N(Cc2ccc(-c3noc(C(F)(F)F)n3)cc2)c2ccccc2C12COc1cc3c(cc12)CCO3 (centres undefined) | 178 to 179 °C
80 | Cc1ccc(C2(CNC(=O)Nc3c(C(C)C)cccc3C(C)C)CCCC2)cc1 | 159 to 161 °C
81 | CCCC(OC)(C(=O)n1ccnc1)c1ccc(Cl)cc1Cl (centres undefined) | 99 to 101 °C
82 | N#CC1(NCC2CCCCC2)CCN(Cc2ccccc2)CC1 | 128 to 130 °C
83 | Cc1ccc2cccc(OCc3c(Cl)ccc(S(=O)(=O)N(CCCCCCCC(=O)O)Cc4ccccc4)c3Cl)c2n1 | 100 °C
84 | Cc1cn(C)cc(-c2cccc(Cl)c2)c1=O | 143 to 144 °C
85 | C=CCOn1c(=O)c2cc(F)c(F)cc2n(Cc2ccccc2)c1=O | 130 to 132 °C
86 | CNS(=O)(=O)Cc1ccc2[nH]ccc2c1 | 127 to 129 °C
87 | CN(C)c1cc(C(O)CNC(C)(C)C)ccc1O (centres undefined) | 108 to 110 °C
88 | Cc1cc(C=CC(=O)COc2ccc(CC(=O)O)cc2)cc(C)c1O | 151 to 154 °C
89 | COC(=O)[C@@H]1C[C@H](C(=O)OC(C)(C)C)N(C(=O)CNC(=O)OC(C)(C)C)[C@@H]1c1ccccc1 (racemic) | 137 °C
90 | CC(C)(C)Nc1nc(NC(C)(C)C)nc(N2CC3CCC(CC3)C2)n1 | 217 to 222 °C
91 | COc1ccc(C(=O)Nc2ncc(Cl)cc2Cl)c2c1oc1ccccc12 | 302 °C
92 | CCOC(=O)Nc1nc(=O)c2cnn3c2n1CC=C3c1cccc(C(F)(F)F)c1 | 219 to 220 °C
93 | Cc1oc(COc2ccccc2/C=C/C=C/C#N)nc1-c1ccccc1 | 128 to 129 °C
94 | COC1=CC(=O)NCC1 | 115 to 117 °C
95 | O=C(NCC(O)c1ccccc1)c1ccc2n1Cc1ccccc1N(C(=O)COc1ccc(Cl)cc1)C2 (centres undefined) | 157 to 158 °C
96 | CCc1cc2c(s1)SCCc1cc(=O)n(C)nc1-2 | 168 to 170 °C
97 | O=C1c2ccc([N+](=O)[O-])cc2C(=O)N1C1CCN(C2CCCCC2)CC1 | 265 to 270 °C
98 | CN1CCN(c2cccc3c2C[C@H](NC(=O)c2ccc(C(F)(F)F)cc2)CC3)CC1 | 203 to 204 °C
99 | CC1=C(C)CCCCCC1 | 63 to 64 °C
100 | Nc1cc2c(cc1N)OC(F)(Cl)C(F)(Cl)O2 (centres undefined) | 130 to 131 °C
101 | CSc1ccc(C=O)cc1Cl | 58 to 59 °C
102 | CSc1nc2nc3cc(C(F)(F)F)ccc3cc2[nH]1 | > 270 °C
103 | CCCS(=O)(=O)c1cccnc1S(N)(=O)=O | 153 to 157 °C
104 | Cc1ccc2nc(N3CCNCC3)c(=O)n(-c3ccccc3)c2c1 | 166 to 168 °C
